Test results published in patent US9682991B2, “Tricyclic compounds for use as kinase inhibitors” (FUNDACIÓN CENTRO NACIONAL DE INVESTIGACIONES ONCOLOGICAS …, priority 2009, dated 2017).
pIC50: −log10 of the molar value. Read-outs that look alike come from different tables or passages of the source.

Tests used:
PIM-2 = PIM-2 (Homo sapiens (Human), UniProt Q9P1W9); assay: PIM-2 biochemical assay (ADP Hunter); details: semi-quantitative; read-out: PIM2 IC50
Source text: The biochemical assay to measure PIM-2 activity relies on the ADP Hunter assay kit (DiscoveRx Corp., Cat. #90-0077), that determines the amount of ADP as direct product of the kinase enzyme activity.

PIM-1 = PIM-1 (Homo sapiens (Human), UniProt P11309); assay: PIM-1 biochemical assay (ADP Hunter)
PIM-1, sequence (P11309 whole entry): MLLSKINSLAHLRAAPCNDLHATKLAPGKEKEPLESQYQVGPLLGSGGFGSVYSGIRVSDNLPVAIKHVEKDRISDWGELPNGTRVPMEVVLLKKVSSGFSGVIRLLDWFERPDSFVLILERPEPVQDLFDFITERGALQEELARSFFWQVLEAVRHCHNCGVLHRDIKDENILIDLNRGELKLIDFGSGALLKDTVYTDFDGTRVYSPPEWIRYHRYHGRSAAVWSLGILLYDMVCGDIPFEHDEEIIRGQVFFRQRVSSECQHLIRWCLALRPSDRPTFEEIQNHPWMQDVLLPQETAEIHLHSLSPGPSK

[1] = read-out: PIM1 IC50, semi-quantitative

PIM-2, sequence (Q9P1W9 whole entry): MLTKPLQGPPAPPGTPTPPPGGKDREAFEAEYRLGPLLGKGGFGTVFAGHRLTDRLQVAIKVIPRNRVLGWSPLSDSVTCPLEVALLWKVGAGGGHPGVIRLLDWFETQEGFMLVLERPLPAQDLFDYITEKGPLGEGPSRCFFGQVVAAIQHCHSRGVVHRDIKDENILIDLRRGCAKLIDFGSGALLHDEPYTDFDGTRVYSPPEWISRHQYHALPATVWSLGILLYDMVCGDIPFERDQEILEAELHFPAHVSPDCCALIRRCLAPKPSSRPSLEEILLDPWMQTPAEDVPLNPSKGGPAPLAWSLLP

Row | SMILES | pIC50 (PIM-2) | pIC50 (PIM-1) | pIC50 (PIM-1; read-out: PIM1 IC50) | pIC50 (PIM-1; [1])
1 | COc1ccc(-c2nnc3c4c(c(NCCN5CCOCC5)nn23)N(C)CCO4)cc1 [Example 4, [3-(4-Methoxy-phenyl)-6-methyl-7,8-dihydro-6H-9-oxa-1,2,3a,4,6-pentaaza-cyclopenta[a]naphthalen-5-yl]-(2-morpholin-4-yl-ethyl)-amine] | < 6.00 | 6.00 to 7.00 | 6.09 | –
2 | CCN1CCOc2c1c(NCC1CC1)nn1c(-c3cccc(OC(F)(F)F)c3)nnc21 [Example 11, Cyclopropylmethyl-[6-ethyl-3-(3-trifluoromethoxy-phenyl)-7,8-dihydro-6H-9-oxa-1,2,3a,4,6-pentaaza-cyclopenta[a]naphthalen-5-yl]-amine] | 6.00 to 7.00 | – | – | > 7.00
3 | CN1CCOc2c1c(N(C)[C@H]1CC[C@H](O)CC1)nn1c(-c3cccc(OC(F)(F)F)c3)nnc21 [Example 35, 4-{Methyl-[6-methyl-3-(3-trifluoromethoxy-phenyl)-7,8-dihydro-6H-9-oxa-1,2,3a,4,6-pentaaza-cyclopenta[a]naphthalen-5-yl]-amino}-cyclohexanol] | > 7.00 | – | – | > 7.00
4 | COc1ccc(-c2nnc3c4c(c(NCC5CCN(C(=O)OC(C)(C)C)CC5)nn23)N(C)CCO4)cc1 [Example 51, 4-{[3-(4-Methoxy-phenyl)-6-methyl-7,8-dihydro-6H-9-oxa-1,2,3a,4,6-pentaaza-cyclopenta[a]naphthalen-5-ylamino]-methyl}-piperidine-1-carboxylic acid tert-butyl ester] | < 6.00 | – | – | < 6.00
5 | CN1CCC(Nc2nn3c(-c4cccc(OC(F)(F)F)c4)nnc3c3c2OCCN3C)CC1 [Example 3, (1-Methyl-piperidin-4-yl)-[9-methyl-3-(3-trifluoromethoxy-phenyl)-8,9-dihydro-7H-6-oxa-1,2,3a,4,9-pentaaza-cyclopenta[a]naphthalen-5-yl]-amine] | < 6.00 | 6.00 to 7.00 | – | –
6 | CC(C)NC1CC2(CCN(c3nn4c(-c5cccc(OC(F)(F)F)c5)nnc4c4c3N(C)CCO4)CC2)C1 [Example 87, Isopropyl-{7-[6-methyl-3-(3-trifluoromethoxy-phenyl)-7,8-dihydro-6H-9-oxa-1,2,3a,4,6-pentaaza-cyclopenta[a]naphthalen-5-yl]-7-aza-spiro[3.5]non-2-yl}-amine] | – | – | – | > 7.00
7 | CN1CCC(CN(C)c2nn3c(-c4cccc(OC(F)(F)F)c4)nnc3c3c2OCCN3C)CC1 [Example 18, Methyl-(1-methyl-piperidin-4-ylmethyl)-[9-methyl-3-(3-trifluoromethoxy-phenyl)-8,9-dihydro-7H-6-oxa-1,2,3a,4,9-pentaaza-cyclopenta[a]naphthalen-5-yl]-amine] | < 6.00 | – | – | < 6.00
8 | CN1CCC(CNc2nn3c(-c4ccc5[nH]ccc5c4)nnc3c3c2N(C)CCO3)CC1 [Example 33, [3-(1H-Indol-5-yl)-6-methyl-7,8-dihydro-6H-9-oxa-1,2,3a,4,6-pentaaza-cyclopenta[a]naphthalen-5-yl]-(1-methyl-piperidin-4-ylmethyl)-amine] | < 6.00 | 6.00 to 7.00 | – | –
9 | CNCC1CCN(c2nn3c(-c4cccc(OC(F)(F)F)c4)nnc3c3c2N(C)CCO3)CC1 [Example 63, Methyl-{1-[6-methyl-3-(3-trifluoromethoxy-phenyl)-7,8-dihydro-6H-9-oxa-1,2,3a,4,6-pentaaza-cyclopenta[a]naphthalen-5-yl]-piperidin-4-ylmethyl}-amine] | > 7.00 | – | – | > 7.00
10 | CN1CCC(CNc2nn3c(-c4ccc(O)cc4)nnc3c3c2N(C)CCO3)CC1 [Example 84, 4-{6-Methyl-5-[(1-methyl-piperidin-4-ylmethyl)-amino]-7,8-dihydro-6H-9-oxa-1,2,3a,4,6-pentaaza-cyclopenta[a]naphthalen-3-yl}-phenol] | < 6.00 | 6.00 to 7.00 | – | –
11 | CN1CCOc2c(NCC34CCN(CC3)C4)nn3c(-c4cccc(OC(F)(F)F)c4)nnc3c21 [Example 53, (1-Aza-bicyclo[2.2.1]hept-4-ylmethyl)-[9-methyl-3-(3-trifluoromethoxy-phenyl)-8,9-dihydro-7H-6-oxa-1,2,3a,4,9-pentaaza-cyclopenta[a]naphthalen-5-yl]-amine] | < 6.00 | 6.00 to 7.00 | – | –
12 | CN1CCOc2c(N(C)C3CCNCC3)nn3c(-c4cccc(OC(F)(F)F)c4)nnc3c21 [Example 45, Methyl-[9-methyl-3-(3-trifluoromethoxy-phenyl)-8,9-dihydro-7H-6-oxa-1,2,3a,4,9-pentaaza-cyclopenta[a]naphthalen-5-yl]-piperidin-4-yl-amine] | < 6.00 | 6.00 to 7.00 | – | –
13 | CN1CCOc2c1c(N1CCC3(CCCNC3)CC1)nn1c(-c3cccc(OC(F)(F)F)c3)nnc21 [Example 67, 5-(2,9-Diaza-spiro[5.5]undec-9-yl)-6-methyl-3-(3-trifluoromethoxy-phenyl)-7,8-dihydro-6H-9-oxa-1,2,3a,4,6-pentaaza-cyclopenta[a]naphthalene] | – | – | – | > 7.00
14 | CC1COc2c(c(N3CCC4(CC3)CC(N)C4)nn3c(-c4cccc(OC(F)(F)F)c4)nnc23)N1C (stereo not drawn) [Example 50, 7-[6,7-Dimethyl-3-(3-trifluoromethoxy-phenyl)-7,8-dihydro-6H-9-oxa-1,2,3a,4,6-pentaaza-cyclopenta[a]naphthalen-5-yl]-7-aza-spiro[3.5]non-2-ylamine] | – | – | – | > 7.00
15 | CN(CC1CCNCC1)c1nn2c(-c3cccc(OC(F)(F)F)c3)nnc2c2c1N(C)CCO2 [Example 64, Methyl-[6-methyl-3-(3-trifluoromethoxy-phenyl)-7,8-dihydro-6H-9-oxa-1,2,3a,4,6-pentaaza-cyclopenta[a]naphthalen-5-yl]-piperidin-4-ylmethyl-amine] | – | – | – | > 7.00
16 | CN1CCOc2c1c(NCC1CC[N+](C)([O-])CC1)nn1c(-c3cccc(OC(F)(F)F)c3)nnc21 (stereo not drawn) [Example 103, (1-Methyl-1-oxy-pipe-din-4-ylmethyl)-[6-methyl-3-(3-trifluoromethoxy-phenyl)-7,8-dihydro-6H-9-oxa-1,2,3a,4,6-pentaaza-cyclopenta[a]naphthalen-5-yl]-amine] | < 6.00 | – | – | > 7.00
17 | CN1CCC(CNc2nn3c(-c4cccc(OC(F)(F)F)c4)nnc3c3c2N(C)C(C)(C)CO3)CC1 [Example 73, (1-Methyl-piperidin-4-ylmethyl)-[6,7,7-trimethyl-3-(3-trifluoromethoxy-phenyl)-7,8-dihydro-6H-9-oxa-1,2,3a,4,6-pentaaza-cyclopenta[a]naphthalen-5-yl]-amine] | 6.00 to 7.00 | – | – | > 7.00
18 | CN1CCOc2c1c(N[C@H]1CC[C@H](O)CC1)nn1c(-c3cccc(OC(F)(F)F)c3)nnc21 [Example 19, 4-[6-Methyl-3-(3-trifluoromethoxy-phenyl)-7,8-dihydro-6H-9-oxa-1,2,3a,4,6-pentaaza-cyclopenta[a]naphthalen-5-ylamino]-cyclohexanol] | – | – | – | > 7.00
19 | CNC1CCN(c2nn3c(-c4cccc(OC(F)(F)F)c4)nnc3c3c2OCCN3C)CC1 [Example 44, Methyl-{1-[9-methyl-3-(3-trifluoromethoxy-phenyl)-8,9-dihydro-7H-6-oxa-1,2,3a,4,9-pentaaza-cyclopenta[a]naphthalen-5-yl]-piperidin-4-yl}-amine] | < 6.00 | 6.00 to 7.00 | – | –
20 | CN1CCOc2c1c(N[C@H]1CC[C@@H](N)CC1)nn1c(-c3cccc(OC(F)(F)F)c3)nnc21 [Example 70, N-[6-Methyl-3-(3-trifluoromethoxy-phenyl)-7,8-dihydro-6H-9-oxa-1,2,3a,4,6-pentaaza-cyclopenta[a]naphthalen-5-yl]-cyclohexane-1,4-diamine] | – | – | – | > 7.00
21 | CN1CCOc2c(NCCN3CCNCC3)nn3c(-c4cccc(OC(F)(F)F)c4)nnc3c21 [Example 42, [9-Methyl-3-(3-trifluoromethoxy-phenyl)-8,9-dihydro-7H-6-oxa-1,2,3a,4,9-pentaaza-cyclopenta[a]naphthalen-5-yl]-(2-piperazin-1-yl-ethyl)-amine] | – | 6.00 to 7.00 | – | –
22 | CN1CCN(C)c2c1c(NCc1ccc(F)cc1)nn1c(-c3ccc(O)cc3)nnc21 [Example 94, 4-[5-(4-Fluoro-benzylamino)-6,9-dimethyl-6,7,8,9-tetrahydro-1,2,3a,4,6,9-hexaaza-cyclopenta[a]naphthalen-3-yl]-phenol] | < 6.00 | 6.00 to 7.00 | – | > 7.00
23 | CN1CCOc2c1c(N[C@H]1CC[C@H](N)CC1)nn1c(-c3cccc(OC(F)(F)F)c3)nnc21 [Example 71, N-[6-Methyl-3-(3-trifluoromethoxy-phenyl)-7,8-dihydro-6H-9-oxa-1,2,3a,4,6-pentaaza-cyclopenta[a]naphthalen-5-yl]-cyclohexane-1,4-diamine] | – | – | – | > 7.00
24 | CN1CCOc2c(NCCCO)nn3c(-c4cccc(OC(F)(F)F)c4)nnc3c21 [Example 22, 3-[9-Methyl-3-(3-trifluoromethoxy-phenyl)-8,9-dihydro-7H-6-oxa-1,2,3a,4,9-pentaaza-cyclopenta[a]naphthalen-5-ylamino]-propan-1-ol] | < 6.00 | 6.00 to 7.00 | 6.17 | –
25 | CN1CCOc2c1c(NCC1CCN(C(=O)OC(C)(C)C)CC1)nn1c(-c3cccc(OC(F)(F)F)c3)nnc21 [Example 79, 4-{[6-Methyl-3-(3-trifluoromethoxy-phenyl)-7,8-dihydro-6H-9-oxa-1,2,3a,4,6-pentaaza-cyclopenta[a]naphthalen-5-ylamino]-methyl}-piperidine-1-carboxylic acid tert-butyl ester] | < 6.00 | 6.00 to 7.00 | – | –
26 | CN1CCC(CNc2nn3c(-c4cccc(OC(F)(F)F)c4)nnc3c3c2OCCO3)CC1 [Example 41, (1-Methyl-piperidin-4-ylmethyl)-[3-(3-trifluoromethoxy-phenyl)-7,8-dihydro-6,9-dioxa-1,2,3a,4-tetraaza-cyclopenta[a]naphthalen-5-yl]-amine] | 6.00 to 7.00 | – | – | > 7.00
27 | CC1COc2c(NCC3CCN(C)CC3)nn3c(-c4cccc(OC(F)(F)F)c4)nnc3c2N1C (stereo not drawn) [Example 38, [8,9-Dimethyl-3-(3-trifluoromethoxy-phenyl)-8,9-dihydro-7H-6-oxa-1,2,3a,4,9-pentaaza-cyclopenta[a]naphthalen-5-yl]-(1-methyl-piperidin-4-ylmethyl)-amine] | – | 6.00 to 7.00 | – | –
